Here are results for two compounds from US12186398B2, “Non-ionic PVP-PLA block copolymers and liquid pharmaceutical compositions derived therefrom” (ALTUS FORMULATION INC., priority 2017, dated 2025).

Where two headings read alike, the source gives them in different places.

Series [1] relates to Human red blood cells (RBC). Nature of the series: In vitro haemolysis. The series is classed as cell-based. The note with it: 5 mg/mL, 37° C., 60 min.
Experimental: For example suspended RBCs isolated from whole human blood may be mixed with non-formulated cargo molecules or test formulations comprising the cargo molecule at a given final concentration with respect to the cargo molecule incubated at 37° C. for 60 minutes, and centrifuged to remove intact RBCs. […] Human red blood cells (RBC) were isolated by centrifugation from whole blood collected in vaccutainer containing EDTA. […] Freeze-dried formulations were reconstituted in water and then diluted to the desired concentrations with PBS.
The nature of series [2]: Literature IV PK of FLU solution in rats (Park and Kim; Knihinicki et al). The series is classed as in vivo. The note with it: Park and Kim data fitted to 2 compartmental model. The source says: The fitted results obtained in the JRF study were then compared to those in the literature, generated after administering a non-micellar low concentration simple FLU solution IV to rats. This was undertaken to determine potential differences in FLU pharmacokinetics induced by the micellar formulation.
The results from the JRF study were then compared to literature values for FLU PK administered as an IV solution as generated by Park and Kim (1) and Knihinicki et al (2); the comparison is shown in Table 39.
For comparative purposes, the rat PK data for a FLU solution generated by Park and Kim (1) were also fitted to the 2 compartmental model (FIG. 22 and Table 41).

For series [3] the following is noted: FLU solution, rats, IV […], NCA, cited from earlier work.
A short description of series [4]: Extrapolation to human IV 2 compartmental PK parameters. The note with it: estimated human iv, PPI 1501 by rat difference ratio, solution from literature oral PK. The source says:
Both sets of rodent data were then extrapolated using published human FLU PK parameters to estimate the PK of FLU post IV administration of PPI 1501 or non-formulated FLU to humans.
Assuming the plasma PK profile of FLU mediated by IV PPI 1501 in the rat is translatable to human, i.e. that the same PK parameter difference ratios for FLU in PPI 1501 observed in the rat apply in humans, then the human IV PK parameters for FLU in PPI 1501 can be estimated. This may be achieved by simple multiplication of the difference ratios provided in Table 41 (last column) to again obtain the comparative human PK parameter values FLU in PPI 1501 versus those obtained from injection of the simple solution; such data may also be compared to data obtained by injecting humans with the prodrug FA (Table 42).
The human IV PK parameters of FLU in solution were estimated based on the oral PK parameters of FLU and its estimated oral bioavailability (project 1 report, Duan, 2015, Table 42, ref 3-8).

For series [5] the following is noted: human iv FA, values from project 1 report; cited from earlier work.

Usually AUC(0-inf) stands for total exposure, with the tail of the curve extrapolated. Read a low AUC(0-inf) as low exposure. Usually AUC(0-t) stands for exposure summed from dosing to a finite time, without extrapolation to infinity. A low value points to low exposure. As a reminder, the MRT is a mean duration of stay, worked out from the concentration-time curve. As a reminder, the clearance is the rate of elimination divided by the concentration. A lower clearance goes with inefficient removal. In general, Vss refers to the apparent volume that relates the amount in the body to the concentration in plasma or blood. As usually defined, the Vz is a proportionality between amount in the body and measured concentration, not a real space. Regarding `CC(C(=O)O)c1ccc(-c2ccccc2)c(F)c1` (stereo not drawn) [FLU, flurbiprofen], the “absorbance at 540 nm” value in series [1] is 0.54±0.03. The compound further showed a percent haemolysis in series [1] (triplicate ± standard deviation) of 92.1±17.2%. In series [2] (IV […]), this compound gave a t1/2Alpha of 5.4 min and a t1/2Beta of 2.73 h. Besides, in series [2] (rat, plasma, IV 2.5 mg/kg), the AUC(0-inf) was determined as 51400 ng·h/mL, the AUC(0-t) was 45300 ng·h/mL, the C0 amounted to 49800 ng/mL and the MRT turned out to be 3.57 h. The compound further showed a clearance in series [2] (rat, plasma, IV 2.5 mg/kg) of 0.81 mL/min/kg. Moreover, the Vd in series [2] (rat, plasma, IV 2.5 mg/kg, read-out: Vss) stood at 0.174 L/kg. Besides, in series [3] (Knihinicki et al), the Vss was 0.22 L/kg, the Vz was 0.239 L/kg and the t1/2 is 3.07 h. Moreover, in series [3] (Park & Kim), the Vss is 0.15678 L/kg, the Vz was 0.19231 L/kg and the t1/2 was 2.78 h. Besides, in series [4], the CL is 0.967 L/h, the CL2 was 0.343 L/h, the “MRT (est. based on 2 compartment model)” value is 7.43 h and the V is reported as 4.984 L. Besides, the V2 in series [4] is on record as 2.199 L.
In the case of flurbiprofen axetil [FA], in series [5], the CL was 1.14 L/h, the CL2 is recorded as 4.40 L/h, the Ka is 58 h⁻¹ and the “MRT (est. based on 2 compartment model)” value is reported as 7.36 h. For the same compound, in series [5], the V is recorded as 5.11 L and the V2 is on record as 3.28 L.
